Measurements from patent US8222244B2, “Staurosporine derivatives as inhibitors of FLT3 receptor tyrosine kinase activity” (Novartis AG, priority 2001, dated 2012).

target: T1, human Flt-3 (Homo sapiens, UniProt P36888); test: Tyrosine protein kinase assay with purified GST-Flt-3 (33P incorporation); format: biochemical; conditions: at a 1.0 micromolar concentration
T1 construct: expresses the amino acid region amino acids 563-993 of the intra-cytoplasmic kinase domains of human Flt-3; made in house; host or cells: Sf9 insect cells (baculovirus, pFbacG01 donor vector)
T1 sequence (P36888 563-993): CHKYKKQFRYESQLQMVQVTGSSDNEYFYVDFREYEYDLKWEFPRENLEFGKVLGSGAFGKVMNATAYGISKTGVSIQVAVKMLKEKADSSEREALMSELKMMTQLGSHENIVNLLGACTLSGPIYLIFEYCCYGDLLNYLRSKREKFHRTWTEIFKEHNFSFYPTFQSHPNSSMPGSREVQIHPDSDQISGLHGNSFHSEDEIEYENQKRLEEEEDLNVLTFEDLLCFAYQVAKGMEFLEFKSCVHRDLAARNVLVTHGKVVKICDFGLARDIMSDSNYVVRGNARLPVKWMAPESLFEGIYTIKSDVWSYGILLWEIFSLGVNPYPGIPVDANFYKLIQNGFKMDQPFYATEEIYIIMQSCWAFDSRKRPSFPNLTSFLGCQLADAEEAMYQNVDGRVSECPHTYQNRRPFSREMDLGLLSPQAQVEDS
Method in brief: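 GST-fused Flt-3 cytoplasmic domain, expressed in baculovirus-infected Sf9 cells and purified, phosphorylates substrate with [γ-33P]ATP. Reaction spotted onto PVDF membranes, washed with H3PO4 and ethanol, and incorporated 33P counted by scintillation.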

Which “Flt3 Inhibition (percent inhibition of Flt3 kinase activity)” value does the source give for “(9a,10b,11b,13a)-11-[[N-Acetyl-4-O-acetyl-6-O-(1-oxooctadecyl)-1-O-(phenylmethyl)-a-muramoyl]methylamino]-2,3,10,11,12,13-hexahydro-10-methoxy-9-methyl-9,13-epoxy-1H,9H-diindolo[1,2,3-gh:3′,2′,1′-lm]pyrrolo[3,4-j][1,7]benzodiazonin-1-one [149622-62-8]” here?
Its value is 22%.

With “(9a,10b,11b,13a)-11-[(N-Acetyl-6-amino-1,6-dideoxymuramoyl)methylamino]-2,3,10,11,12,13-hexahydro-10-methoxy-9-methyl-9,13-epoxy-1H,9H-diindolo[1,2,3-gh:3′,2′,1′-lm]pyrrolo[3,4-j][1,7]benzodiazonin-1-one, monomethanesulfonate [150654-80-1]” as the compound, how does the “Flt3 Inhibition (percent inhibition of Flt3 kinase activity)” value read?
The value was 97%.

Which “Flt3 Inhibition (percent inhibition of Flt3 kinase activity)” value does the source give for “(9a,10b,11b,13a)-N-(2,3,10,11,12,13-Hexahydro-10-methoxy-9-methyl-1-oxo-9,13-epoxy-1H,9H-diindolo[1,2,3-gh:3′,2′,1′-lm]pyrrolo[3,4-j][1,7]benzodiazonin-11-yl)-N-methyl-4-nitro-benzamide [120685-46-3]” here?
Its value is 81%.

How did the “Flt3 Inhibition (percent inhibition of Flt3 kinase activity)” value turn out when `CNC1CC2OC(C)(C1O)n1c3ccccc3c3c4c(c5c6ccccc6n2c5c31)C(=O)NC4` [239785-03-6, (9R,10S,11S,13S)-2,3,10,11,12,13-Hexahydro-10-hydroxy-9-methyl-11-(methylamino)-,9,13-epoxy-1H,9H-diindolo[1,2,3-gh:3′,2′,1′-lm]pyrrolo[3,4-j][1,7]benzodiazonin-1-one] was run?
Its value is 100%.

How did the “Flt3 Inhibition (percent inhibition of Flt3 kinase activity)” value turn out when “11-[[N-Acetyl-1-O-methyl-4,6-O-(phenylmethylene)-a-normuramoyl]methylamino]-2,3,10,11,12,13-hexahydro-10-methoxy-9-methyl-9,13-epoxy-1H,9H-diindolo[1,2,3-gh:3′,2′,1′-lm]pyrrolo[3,4-j][1,7]benzodiazonin-1-one [149622-43-5]” was run?
The value was 66%.

How did the “Flt3 Inhibition (percent inhibition of Flt3 kinase activity)” value turn out when `CO[C@@H]1[C@H](N(C)C(=O)CNC(=O)OC(C)(C)C)C[C@H]2O[C@]1(C)n1c3ccccc3c3c4c(c5c6ccccc6n2c5c31)C(=O)NC4` [124078-43-9, [9S-(9a,10b,11b,13a)]-[2-[(2,3,10,11,12,13-Hexahydro-10-methoxy-9-methyl-1-oxo-9,13-epoxy-1H,9H-diindolo[1,2,3-gh:3′,2′,1′-lm]pyrrolo[3,4-j][1,7]benzodiazonin-11-yl)methylamino]-2-oxoethyl]-carbamic acid, 1,1-dimethylethyl ester] was run?
Its value is 65%.

How did the “Flt3 Inhibition (percent inhibition of Flt3 kinase activity)” value turn out when “[9S-(9a,10b,13a)]-2,3,9,10,12,13-Hexahydro-10-hydroxy-9-methyl-9,13-epoxy-1H,11H-diindolo[1,2,3-gh:3′,2′,1′-lm]pyrrolo[3,4-j][1,7]benzodiazonine-1,11-dione, 11-oxime [187457-73-4]” was run?
Its value is 89%.

“(9a,10b,11b,13a)-11-[(N-Acetyl-6-amino-6-deoxy-a-isomuramoyl)methylamino]-2,3,10,11,12,13-hexahydro-10-methoxy-9-methyl-9,13-epoxy-1H,9H-diindolo[1,2,3-gh:3′,2′,1′-lm]pyrrolo[3,4-j][1,7]benzodiazonin-1-one [149622-56-0]” was tested. Which “Flt3 Inhibition (percent inhibition of Flt3 kinase activity)” value did it give?
The value was 100%.

With `COC1C(N(C)C(=O)CN)CC2OC1(C)n1c3ccccc3c3c4c(c5c6ccccc6n2c5c31)C(=O)NC4.Cl` (stereo not drawn) [124151-42-4, [9S-(9a,10b,11b,13a)]-2-Amino-N-(2,3,10,11,12,13-hexahydro-10-methoxy-9-methyl-1-oxo-9,13-epoxy-1H,9H-diindolo[1,2,3-gh:3′,2′,1′-lm]pyrrolo[3,4-j][1,7]benzodiazonin-11-yl)-N-methyl-acetamide, monohydrochloride] as the compound, how does the “Flt3 Inhibition (percent inhibition of Flt3 kinase activity)” value read?
Its value is 97%.

`COC1C(N(C)C(=O)C(C)OC2CCOCC2)CC2OC1(C)n1c3ccccc3c3c4c(c5c6ccccc6n2c5c31)C(=O)NC4` (stereo not drawn) [160335-31-9, [9S-[9a,10b,11b(R*),13a]]-N-(2,3,10,11,12,13-Hexahydro-10-methoxy-9-methyl-1-oxo-9,13-epoxy-1H,9H-diindolo[1,2,3-gh:3′,2′,1′-lm]pyrrolo[3,4-j][1,7]benzodiazonin-11-yl)-N-methyl-2-[(tetrahydro-2H-pyran-4-yl)oxy]-propanamide] was tested. Which “Flt3 Inhibition (percent inhibition of Flt3 kinase activity)” value did it give?
The value was 90%.

Which “Flt3 Inhibition (percent inhibition of Flt3 kinase activity)” value does the source give for “(9a,10b,11b,13a)-11-[[N-Acetyl-4,6-O-(1-methylethylidene)-1-O-(phenylmethyl)-a-isomuramoyl]methylamino]-2,3,10,11,12,13-hexahydro-9-methyl-10-methoxy-9,13-epoxy-1H,9H-diindolo[1,2,3-gh:3′,2′,1′-lm]pyrrolo[3,4-j][1,7]benzodiazonin-1-one [149622-59-3]” here?
The value was 77%.

Which “Flt3 Inhibition (percent inhibition of Flt3 kinase activity)” value does the source give for `COC1C(N(C)C(=O)c2cccnc2)CC2OC1(C)n1c3ccccc3c3c4c(c5c6ccccc6n2c5c31)C(=O)NC4` (stereo not drawn) [155848-16-1, [9S-(9a,10b,11b,13a)]-N-(2,3,10,11,12,13-Hexahydro-10-methoxy-9-methyl-1-oxo-9,13-epoxy-1H,9H-diindolo[1,2,3-gh:3′,2′,1′-lm]pyrrolo[3,4-g][1,7]benzodiazonin-11-yl)-N-methyl-3-pyridinecarboxamide] here?
The value was 89%.

Which “Flt3 Inhibition (percent inhibition of Flt3 kinase activity)” value does the source give for “(9a,10b,11b,13a)-11-[[N-Acetyl-4-O-acetyl-6-O-(1-oxooctadecyl)-a-muramoyl]methylamino]-2,3,10,11,12,13-hexahydro-10-methoxy-9-methyl-9,13-epoxy-1H,9H-diindolo[1,2,3-gh:3′,2′,1′-lm]pyrrolo[3,4-j][1,7]benzodiazonin-1-one [149622-64-0]” here?
Its value is 27%.

Which “Flt3 Inhibition (percent inhibition of Flt3 kinase activity)” value does the source give for `CO[C@@H]1[C@H](N(C)C(=O)c2ccccc2)C[C@H]2O[C@]1(C)n1c3ccccc3c3c4c(c5c6ccccc6n2c5c31)C(=O)NC4=O` [154589-96-5, [9S-(9a,10b,11b,13a)]-N-(2,3,10,11,12,13-Hexahydro-10-methoxy-9-methyl-1,3-dioxo-9,13-epoxy-1H,9H-diindolo[1,2,3-gh:3′,2′,1′-lm]pyrrolo[3,4-j][1,7]benzodiazonin-11-yl)-N-methyl-benzamide] here?
Its value is 63%.

“[9a,10b,11b(S*),13a]-phenylmethyl 2-(acetylamino)-2-deoxy-3-O-[1-[[(2,3,10,11,12,13-hexahydro-10-methoxy-9-methyl-1-oxo-9,13-epoxy-1H,9H-diindolo[1,2,3-gh:3′,2′,1′-lm]pyrrolo[3,4-j][1,7]benzodiazonin-11-yl)methylamino]carbonyl]propyl]-a-D-Glucopyranoside [149622-45-7]” was tested. Which “Flt3 Inhibition (percent inhibition of Flt3 kinase activity)” value did it give?
The value was 43%.

With “[9S-(9a,10b,11b,13a)]-N-(2,3,10,11,12,13-Hexahydro-10-methoxy-9-methyl-1-oxo-9,13-epoxy-1H,9H-diindolo[1,2,3-gh:3′,2′,1′-lm]pyrrolo[3,4-j][1,7]benzodiazonin-11-yl)-N-methyl-2-[(tetrahydro-2H-pyran-4-yl)oxy]-acetamide [160251-52-5]” as the compound, how does the “Flt3 Inhibition (percent inhibition of Flt3 kinase activity)” value read?
The value was 94%.
